Drawing on ChEMBL document CHEMBL5233271, “Discovering the Mechanisms of Wikstroelide E as a Potential HIV-Latency-Reversing Agent by Transcriptome Profiling” (J Nat Prod, 2021), this text covers Activity for one compound.

Each structure is given as a SMILES string. Activity calls are given as the source filed them. The rule behind the calls is not given here.

For test [1], the system named is Human immunodeficiency virus. Description: Reactivation of latent HIV in human NH1 cells at 5 uM measured after 24 hrs by luciferase based analysis. In kind it is functional, organism-based.
For test [2], the system named is Human immunodeficiency virus. In words: Reactivation of latent HIV in human NH2 cells at 5 uM measured after 24 hrs by luciferase based analysis. In kind it is functional, organism-based.

In the case of `CC(=O)O[C@@]12C[C@@H](C)[C@@]3(O)[C@@H](C=C(CO)C[C@]4(O)C(=O)C(C)=C[C@@H]34)[C@@H]1C2(C)C`, the result in test [1] and in test [2] was Active.
